These results are taken from patent publication EP0491793B1, “2'-DEOXY-4'-THIORIBONUCLEOSIDES AS ANTIVIRAL AND ANTICANCER AGENTS” (Southern Research Institute, priority 1989, dated 1991).

The subject of series [1] is leukemia L1210 ("L1210") cells. Nature of the series: Cytotoxicity test, cellular proliferation of L1210 cells in suspension culture. The following applies: Mus musculus, concentration decreasing cellular proliferation by 50%, 48 hour values. The series is classed as cell-based. The method, then: (§1) 2'-Deoxy-4'-thioribonucleosides were tested for antitumor activity against leukemia L1210 ("L1210") cells and human epidermoid carcinoma No. 2 ("H.Ep.-2") cells.
(§2) For L1210 cells the IC50 is the concentration required to decrease cellular proliferation by 50% as compared to untreated controls. The cells were grown in suspension cultures and the number of cells present was determined at 24 and 48 hours.
(§3) In the cytotoxicity tests, the lower the IC50 value, the greater the antitumor activity. […]

A further series concerns HSV-1 (E377). Nature of the series: CPE-inhibition assay against HSV-1 in Vero cell monolayers. In kind it is cell-based, herpes simplex virus, Type 1. The following applies: for EC50: read-out: MIC50; for VR: Virus Rating, VR 1.0 or greater significant, 0.5-0.9 marginal, less than 0.5 inactive; for TI: therapeutic index, MTC divided by MIC50, HSV-1 (E377). How it is done:
(§4) 2'-Deoxy-4'-thioribonucleosides were tested for antiviral activity against viruses that replicate in mammalian cells growing in cell culture. The Virus Rating (VR) is a standard weighted measurement of antiviral activity which takes into account the degree of inhibition of virus-induced cytopathogenic effects (CPE) and the degree of cytotoxicity produced by the test compound, determined by a modification of the method of Ehrlich et al, Ann. N.Y. Acad. Sci. 130, 5-16 (1965) .
(§5) The CPE-inhibition assays were designed to test seven 0.5 log10 concentrations of each compound, beginning with 320 µg/mL, against HSV in triplicate 24-hour Vero cell monolayers in 96-well tissue culture plates. To each of the replicate cell cultures were dispensed 0.1 mL of the test compound solution (or suspension) and 0.1 mL of HSV suspension (diluted in medium to yield 32 CCID50 units per 0.1 mL). Cell controls, untreated virus-infected controls and drug cytotoxicity controls were included in each assay. […] The cell monolayers were examined microscopically for drug cytotoxicity and for CPE. which was graded on a scale of 0-4 (0-100% CPE).
(§6) The VR was calculated as 0.1 of the sum of the numerical differences between the recorded CPE grade of each test well and that of the corresponding virus control in the culture plate. Numerical differences between the scores of test wells containing a drug concentration which is partially cytotoxic and their corresponding virus controls were halved.
(§7) In tests carried out by this method, a greater value of VR indicates greater antiviral activity.
(§8) The MIC50 (minimum inhibitory concentration, 50%) is the concentration of a test compound required for 50% inhibition of virus-induced cytopathogenic effect calculated by using a regression analysis program for semilog curve fitting. MTC (minimum toxic concentration) is the minimum drug concentration (µg/ml) causing any cytotoxicity. TI is the therapeutic index, calculated by dividing the minimum cytotoxic drug concentration (MTC) by the minimum inhibitory concentration, 50% (MIC50). […]

A short description of the next series: in vitro. The series is classed as cell-based. The following applies: monkey, vero cells. How it is done: (§9) The CPE-inhibition assays were designed to test seven 0.5 log10 concentrations of each compound, beginning with 320 µg/mL, against HSV in triplicate 24-hour Vero cell monolayers in 96-well tissue culture plates. […] Cell controls, untreated virus-infected controls and drug cytotoxicity controls were included in each assay. […] The cell monolayers were examined microscopically for drug cytotoxicity and for CPE. which was graded on a scale of 0-4 (0-100% CPE). The MIC50 (minimum inhibitory concentration, 50%) is the concentration of a test compound required for 50% inhibition of virus-induced cytopathogenic effect calculated by using a regression analysis program for semilog curve fitting. MTC (minimum toxic concentration) is the minimum drug concentration (µg/ml) causing any cytotoxicity. TI is the therapeutic index, calculated by dividing the minimum cytotoxic drug concentration (MTC) by the minimum inhibitory concentration, 50% (MIC50). […]

For a further series, the system named is HSV-2 (MS). Nature of the series: CPE-inhibition assay against HSV-2 in Vero cell monolayers. The series is classed as cell-based, herpes simplex virus, Type 2. The following applies: for VR: Virus Rating, VR 1.0 or greater significant, 0.5-0.9 marginal, less than 0.5 inactive; for EC50: read-out: MIC50. The method, then: as §4, §5, §6, §7, §8
Series [2] has as its system human epidermoid carcinoma No. 2 ("H.Ep.-2") cells. Nature of the series: Cytotoxicity test, colony formation of H.Ep.-2 cells. The series is classed as cell-based. The settings on record: HEp-2, 240 h, concentration reducing colony formation by 50%, 10 days incubation. How it is done: as §1
(§10) For H.Ep.-2 cells, the IC50 is the concentration required to reduce colony formation by 50% as compared to controls. One hundred cells in 10 mL of medium were placed in prescription bottles, and after 10 days incubation, the medium was decanted and the colonies were stained and counted.
as §3

Series [3] has as its system either H.Ep.-2 or L1210 cells, or both. Nature of the series: Cytotoxicity tests, summary statements that do not fix the cell line. The series is classed as cell-based. The settings on record: text statement on Table 2, cell line not fixed. How it is done: as §1, §2, §10, §3
The next series deals with Vero cell monolayers. Nature of the series: in vitro. The settings on record: monkey, vero cells. The series is classed as cell-based. The method, then:
as §9

Where [4] appears, read: Human alphaherpesvirus 1, 50% inhibition of virus-induced cytopathogenic effect, HSV-1 (E377), Vero cells, unit not given for MIC50 (MTC in µg/ml, TI = MTC/MIC50).

One may read the IC50 as the concentration that inhibits the measured activity by half. Lower therefore signals inhibition by little substance.

Values after ≈ are worked out from the molar mass of the structure shown. Like-named read-outs stand apart in the source and are kept apart here. Where only a bound is given, the exact number is not on record here.

Consider `Cc1cn([C@H]2C[C@H](O)[C@@H](CO)S2)c(=O)[nH]c1=O` [1-(2'-Deoxy-4'-thio-β-D-ribofuranosyl)thymine], for which the figures for the half-inhibitory concentration (IC50) in series [1], in series [2] and in series [3] were 0.025 µg/mL (≈ 0.0968 µM), 0.075 µg/mL (≈ 0.29 µM) and < 1 µg/mL, respectively. Moreover, in the series on HSV-1 (E377) (setting [4]), the EC50 was determined as 0.8 µg/mL (≈ 3.1 µM). The VR was 1.3 in the series with HSV-1 (E377) (HSV-1 (E377), Vero cells) and 0.1 in the series with HSV-2 (MS) (HSV-2 (MS), Vero cells). Moreover, the TI with HSV-1 (E377) is recorded as 3.2 -. The MCC in the series “in vitro” was 2.6 µg/mL.

For the molecule `Cc1cn([C@@H]2C[C@H](O)[C@@H](CO)S2)c(=O)[nH]c1=O` [1-(2-Deoxy-4-thio-α-D-ribofuranosyl)-thymine], the IC50 is 20 µg/mL (≈ 77.4 µM) in series [1] and 2.7 µg/mL (≈ 10.5 µM) in series [2]. Also, the EC50 in the series with HSV-1 (E377) (setting [4]) was 100 µg/mL (≈ 388 µM). Besides, the VR in the series with HSV-1 (E377) (HSV-1 (E377), Vero cells) turned out to be 1.4; with HSV-2 (MS) (HSV-2 (MS), Vero cells), 0.3. The “antiviral activity against herpes simplex Type 1” value in the series with HSV-1 (E377) (statement in words on the tests of Table 1) is “definite antiviral activity”. The TI with HSV-1 (E377) is 2.3 -. For the same molecule, in the series with Vero cell monolayers, the MIC is reported as >257.2 >257.2 µg/ml. In addition, the MCC in “in vitro” is > 257 µg/mL.

Regarding `Nc1nc2c(ncn2COCCO)c(=O)[nH]1` [Acyclovir, reference compound], the EC50 in the series with HSV-1 (E377) (setting [4]) is 0.5 µg/mL (≈ 2.22 µM); in the series on HSV-2 (MS) (Human alphaherpesvirus 2, 50% inhibition of virus-induced cytopathogenic effect, HSV-2 (MS), Vero cells, unit not given for MIC50 (MTC in µg/ml, TI = MTC/MIC50)) it was 3.6 µg/mL (≈ 16 µM). The VR is listed as 6.7 in the series with HSV-1 (E377) (HSV-1 (E377), Vero cells) and 4.8 in the series with HSV-2 (MS) (HSV-2 (MS), Vero cells). Besides, in the series with HSV-1 (E377), the TI was > 441. In addition, in the series on Vero cell monolayers, the MIC was >225.2 >225.2 µg/ml. Besides, in “in vitro”, the MCC was > 225 µg/mL.

With `Nc1ncnc2c1ncn2[C@@H]1O[C@H](CO)[C@@H](O)[C@@H]1O` [Ara-A, 9-β-D-arabinofuranosyladenine, reference compound], the EC50 in the series with HSV-1 (E377) (Human alphaherpesvirus 1, Vero) was found to be 15.2 µg/mL (≈ 56.9 µM); in the series on HSV-2 (MS) (Human alphaherpesvirus 2, Vero), 39.3 µg/mL (≈ 147 µM). In addition, the VR in the series on HSV-1 (E377) (HSV-1 (E377), Vero cells) came to 1.8; with HSV-2 (MS) (HSV-2 (MS), Vero cells), 1.1. Also, the TI is on record as 5.6 with HSV-1 (E377) and 2.2 with HSV-2 (MS) (therapeutic index, MTC divided by MIC50, HSV-2 (MS)). The MCC in “in vitro” was 84.8 µg/mL.
